Results taken from US12071596B2, “Metal working fluids biocide” (Dow Global Technologies LLC, priority 2021, dated 2024).

Each compound was assayed on mixed microbial inoculum (assay: Microbial growth inhibition test (challenge test) in diluted metalworking fluid). Conditions: 0.91 wt. % amine in diluted metalworking fluid; 2nd dosing 0.5 ml mixed inoculum; 30° C.; read at Day 14.
Format: cell-based
Procedure: Test 1—Microbial Growth Inhibition Test
To test the novel disclosed microbial growth control agent the diluted metal working fluid shown in Table 1 is mixed with the various ether amines listed in Table 2. Firstly, using 250 mL glass beaker to prepare 100 g the basic diluted metalworking fluid with the recipe in Table 1 except amine ingredient, stirring for getting clear solution. Repeating the first step to get 8 basic diluted metalworking fluid solutions. Secondly, adding every kind of amine or amine combination from Table 2 as comparative example 1-2 and example 1-6. Thirdly, 50 g the comparative example 1-2 and example 1-6 into 8 petri dishes with a diameter of 10 cm and dosed with 0.5 ml of mixed microbial inoculum. Measuring the microbial growth in the petri dishes after 7 days and repeating to dose the mixed microbial inoculum and measuring them in 5 times. For the first and second dosing, 0.5 ml mixed inoculum is used; in third and fourth dosing, 1 ml mixed inoculum is used; and in the fifth dosing, 3 ml mixed inoculum is used The MWF microbial inoculum was prepared by adding 0.1 mL of each bacterial overnight broth culture and 1.0 mL of each yeast broth culture to the 10 mL of mold suspension and blending. The microbial strains used in this experiment are listed in Table 3 below (8 bacteria, 2 molds and 2 fungi). These strains were cultivated separately in nutrient broth and then blend them together. The mixed strains were then injected into each tested MWF and amine sample and mixed well.
50 grams of each of the MWF treated with amine samples (e.g., Examples 1-5 and Comparative Examples 1-2) were dosed with 0.5 ml of mixed microbial inoculum on Day 0 of this experiment. This inoculation introduces around […] colony forming units per milliliter of sample, (CFU/ml) of microorganisms.
The mixed inoculated samples where then incubated at 30° C. to determine the biocidal effect of the tested amines on the microbes. After seven days, the number of microorganisms surviving in the petri dish was observed and if the colony growth was less than 10, it was considered as PASS. After measuring the number of surviving microorganisms, another round of dosing with the mixed microbial inoculum was complete. The step of observation and subsequent dosing was done 5 times to challenge the microbial growth inhibition capabilities of the tested examples. For the first and second dosing, 0.5 ml mixed inoculum was used; in third and fourth dosing, 1 ml mixed inoculum was used; and in the fifth dosing, 3 ml mixed inoculum is used.

| SMILES | Challenge Test Results 2nd dose Day 14 |
| --- | --- |
| CCCOCC(C)OCC(C)N (centres unmarked) [Example 6, 1-(1-methyl-2-propoxyethoxy)-2-propanamine] | Pass (if the colony growth was less than 10, it was considered as PASS) |
| CCCCOCC(C)OCC(C)N (centres unmarked) [Example 5, 2-propanamine, 1-(2-butoxy-1-methylethoxy)-] | Pass (if the colony growth was less than 10, it was considered as PASS) |
| CCCOCC(C)OCC(C)OCC(C)N (centres unmarked) [Example 4, 1-[1-methyl-2-(1-methyl-2-propoxyethoxy)ethoxy]-2-propanamine] | Pass (if the colony growth was less than 10, it was considered as PASS) |
| CC(C)(N)CO [compound 2, 2-amino-2-methyl-1-propanol, reference compound] | Pass (if the colony growth was less than 10, it was considered as PASS) |
| CCCCOCC(C)N (centres unmarked) [Example 2, 1-butoxy-2-propanamine] | Pass (if the colony growth was less than 10, it was considered as PASS) |
| COCC(C)N (centres unmarked) [Example 1, 1-methoxy-2-propanamine] | Pass (if the colony growth was less than 10, it was considered as PASS) |
| CCCCOCCN [Example 3, 2-butoxy-ethanamine] | Pass (if the colony growth was less than 10, it was considered as PASS) |

Same assay, conditions: 0.91 wt. % amine in diluted metalworking fluid; 3rd dosing 1 ml mixed inoculum; 30° C.; read at Day 21

| SMILES | Challenge Test Results 3rd dose Day 21 |
| --- | --- |
| CCCOCC(C)OCC(C)N (centres unmarked) [Example 6, 1-(1-methyl-2-propoxyethoxy)-2-propanamine] | Pass (if the colony growth was less than 10, it was considered as PASS) |
| CCCCOCC(C)OCC(C)N (centres unmarked) [Example 5, 2-propanamine, 1-(2-butoxy-1-methylethoxy)-] | Pass (if the colony growth was less than 10, it was considered as PASS) |
| CCCOCC(C)OCC(C)OCC(C)N (centres unmarked) [Example 4, 1-[1-methyl-2-(1-methyl-2-propoxyethoxy)ethoxy]-2-propanamine] | Pass (if the colony growth was less than 10, it was considered as PASS) |
| CC(C)(N)CO [compound 2, 2-amino-2-methyl-1-propanol, reference compound] | Pass (if the colony growth was less than 10, it was considered as PASS) |
| CCCCOCC(C)N (centres unmarked) [Example 2, 1-butoxy-2-propanamine] | Pass (if the colony growth was less than 10, it was considered as PASS) |
| COCC(C)N (centres unmarked) [Example 1, 1-methoxy-2-propanamine] | Pass (if the colony growth was less than 10, it was considered as PASS) |
| CCCCOCCN [Example 3, 2-butoxy-ethanamine] | Pass (if the colony growth was less than 10, it was considered as PASS) |

Same assay, conditions: 0.91 wt. % amine in diluted metalworking fluid; 4th dosing 1 ml mixed inoculum; 30° C.; read at Day 28

| SMILES | Challenge Test Results 4th dose Day 28 |
| --- | --- |
| CCCOCC(C)OCC(C)N (centres unmarked) [Example 6, 1-(1-methyl-2-propoxyethoxy)-2-propanamine] | Pass (if the colony growth was less than 10, it was considered as PASS) |
| CCCCOCC(C)OCC(C)N (centres unmarked) [Example 5, 2-propanamine, 1-(2-butoxy-1-methylethoxy)-] | Pass (if the colony growth was less than 10, it was considered as PASS) |
| CCCOCC(C)OCC(C)OCC(C)N (centres unmarked) [Example 4, 1-[1-methyl-2-(1-methyl-2-propoxyethoxy)ethoxy]-2-propanamine] | Pass (if the colony growth was less than 10, it was considered as PASS) |
| CC(C)(N)CO [compound 2, 2-amino-2-methyl-1-propanol, reference compound] | Pass (if the colony growth was less than 10, it was considered as PASS) |
| CCCCOCC(C)N (centres unmarked) [Example 2, 1-butoxy-2-propanamine] | Pass (if the colony growth was less than 10, it was considered as PASS) |
| COCC(C)N (centres unmarked) [Example 1, 1-methoxy-2-propanamine] | Pass (if the colony growth was less than 10, it was considered as PASS) |
| CCCCOCCN [Example 3, 2-butoxy-ethanamine] | Pass (if the colony growth was less than 10, it was considered as PASS) |

Same assay, conditions: 0.91 wt. % amine in diluted metalworking fluid; 5th dosing 3 ml mixed inoculum; 30° C.; read at Day 35

| SMILES | Challenge Test Results 5th dose Day 35 |
| --- | --- |
| CCCOCC(C)OCC(C)N (centres unmarked) [Example 6, 1-(1-methyl-2-propoxyethoxy)-2-propanamine] | Pass (if the colony growth was less than 10, it was considered as PASS) |
| CCCCOCC(C)OCC(C)N (centres unmarked) [Example 5, 2-propanamine, 1-(2-butoxy-1-methylethoxy)-] | Pass (if the colony growth was less than 10, it was considered as PASS) |
| CCCOCC(C)OCC(C)OCC(C)N (centres unmarked) [Example 4, 1-[1-methyl-2-(1-methyl-2-propoxyethoxy)ethoxy]-2-propanamine] | Pass (if the colony growth was less than 10, it was considered as PASS) |
| CC(C)(N)CO [compound 2, 2-amino-2-methyl-1-propanol, reference compound] | Pass (if the colony growth was less than 10, it was considered as PASS) |
| CCCCOCC(C)N (centres unmarked) [Example 2, 1-butoxy-2-propanamine] | Pass (if the colony growth was less than 10, it was considered as PASS) |
| COCC(C)N (centres unmarked) [Example 1, 1-methoxy-2-propanamine] | Pass (if the colony growth was less than 10, it was considered as PASS) |
| CCCCOCCN [Example 3, 2-butoxy-ethanamine] | Pass (if the colony growth was less than 10, it was considered as PASS) |

Same assay, conditions: 0.91 wt. % amine in diluted metalworking fluid; 50 g sample; 1st dosing 0.5 ml mixed inoculum; 30° C.; read at Day 7

| SMILES | Challenge Test Results 1st dose Day 7 |
| --- | --- |
| CCCOCC(C)OCC(C)N (centres unmarked) [Example 6, 1-(1-methyl-2-propoxyethoxy)-2-propanamine] | Pass (if the colony growth was less than 10, it was considered as PASS) |
| CCCCOCC(C)OCC(C)N (centres unmarked) [Example 5, 2-propanamine, 1-(2-butoxy-1-methylethoxy)-] | Pass (if the colony growth was less than 10, it was considered as PASS) |
| CCCOCC(C)OCC(C)OCC(C)N (centres unmarked) [Example 4, 1-[1-methyl-2-(1-methyl-2-propoxyethoxy)ethoxy]-2-propanamine] | Pass (if the colony growth was less than 10, it was considered as PASS) |
| CC(C)(N)CO [compound 2, 2-amino-2-methyl-1-propanol, reference compound] | Pass (if the colony growth was less than 10, it was considered as PASS) |
| CCCCOCC(C)N (centres unmarked) [Example 2, 1-butoxy-2-propanamine] | Pass (if the colony growth was less than 10, it was considered as PASS) |
| COCC(C)N (centres unmarked) [Example 1, 1-methoxy-2-propanamine] | Pass (if the colony growth was less than 10, it was considered as PASS) |
| CCCCOCCN [Example 3, 2-butoxy-ethanamine] | Pass (if the colony growth was less than 10, it was considered as PASS) |
